# Measurements taken from the NIST ThermoML archive (doi:10.1016/j.jct.2005.07.011).
# ± gives the expanded uncertainty stated by the source.
# Assay: excess molar enthalpy (molar enthalpy of mixing); xn = mol fraction of the nth substance listed
# Conditions: Liquid
smiles,measurement,setting,value
CCCCCO [pentan-1-ol] + COC(=O)OC,excess molar enthalpy,"298.15 K, 1000 kPa, x2 = 0.05",0.133 ± 0.00502 kcal/mol
same,excess molar enthalpy,"298.15 K, 1000 kPa, x2 = 0.101",0.246 ± 0.00574 kcal/mol
same,excess molar enthalpy,"298.15 K, 1000 kPa, x2 = 0.151",0.334 ± 0.00669 kcal/mol
same,excess molar enthalpy,"298.15 K, 1000 kPa, x2 = 0.2",0.405 ± 0.00741 kcal/mol
same,excess molar enthalpy,"298.15 K, 1000 kPa, x2 = 0.25",0.459 ± 0.00813 kcal/mol
same,excess molar enthalpy,"298.15 K, 1000 kPa, x2 = 0.3",0.498 ± 0.0086 kcal/mol
same,excess molar enthalpy,"298.15 K, 1000 kPa, x2 = 0.35",0.524 ± 0.00884 kcal/mol
same,excess molar enthalpy,"298.15 K, 1000 kPa, x2 = 0.4",0.542 ± 0.00908 kcal/mol
same,excess molar enthalpy,"298.15 K, 1000 kPa, x2 = 0.45",0.552 ± 0.00908 kcal/mol
same,excess molar enthalpy,"298.15 K, 1000 kPa, x2 = 0.5",0.552 ± 0.00908 kcal/mol
same,excess molar enthalpy,"298.15 K, 1000 kPa, x2 = 0.55",0.541 ± 0.00884 kcal/mol
same,excess molar enthalpy,"298.15 K, 1000 kPa, x2 = 0.601",0.52 ± 0.0086 kcal/mol
same,excess molar enthalpy,"298.15 K, 1000 kPa, x2 = 0.651",0.493 ± 0.00813 kcal/mol
same,excess molar enthalpy,"298.15 K, 1000 kPa, x2 = 0.701",0.454 ± 0.00741 kcal/mol
same,excess molar enthalpy,"298.15 K, 1000 kPa, x2 = 0.75",0.403 ± 0.00669 kcal/mol
same,excess molar enthalpy,"298.15 K, 1000 kPa, x2 = 0.851",0.273 ± 0.00454 kcal/mol
same,excess molar enthalpy,"298.15 K, 1000 kPa, x2 = 0.899",0.196 ± 0.00335 kcal/mol
same,excess molar enthalpy,"298.15 K, 1000 kPa, x2 = 0.949",0.104 ± 0.00198 kcal/mol
same,excess molar enthalpy,"313.15 K, 100 kPa, x2 = 0.05",0.138 ± 0.00526 kcal/mol
same,excess molar enthalpy,"313.15 K, 100 kPa, x2 = 0.101",0.259 ± 0.00621 kcal/mol
same,excess molar enthalpy,"313.15 K, 100 kPa, x2 = 0.151",0.354 ± 0.00693 kcal/mol
same,excess molar enthalpy,"313.15 K, 100 kPa, x2 = 0.2",0.432 ± 0.00765 kcal/mol
same,excess molar enthalpy,"313.15 K, 100 kPa, x2 = 0.25",0.494 ± 0.00837 kcal/mol
same,excess molar enthalpy,"313.15 K, 100 kPa, x2 = 0.301",0.541 ± 0.00884 kcal/mol
same,excess molar enthalpy,"313.15 K, 100 kPa, x2 = 0.351",0.571 ± 0.00932 kcal/mol
same,excess molar enthalpy,"313.15 K, 100 kPa, x2 = 0.402",0.593 ± 0.00956 kcal/mol
same,excess molar enthalpy,"313.15 K, 100 kPa, x2 = 0.451",0.602 ± 0.0098 kcal/mol
same,excess molar enthalpy,"313.15 K, 100 kPa, x2 = 0.501",0.601 ± 0.0098 kcal/mol
same,excess molar enthalpy,"313.15 K, 100 kPa, x2 = 0.549",0.59 ± 0.00956 kcal/mol
same,excess molar enthalpy,"313.15 K, 100 kPa, x2 = 0.601",0.567 ± 0.00908 kcal/mol
same,excess molar enthalpy,"313.15 K, 100 kPa, x2 = 0.648",0.538 ± 0.00884 kcal/mol
same,excess molar enthalpy,"313.15 K, 100 kPa, x2 = 0.749",0.446 ± 0.00765 kcal/mol
same,excess molar enthalpy,"313.15 K, 100 kPa, x2 = 0.799",0.376 ± 0.00669 kcal/mol
same,excess molar enthalpy,"313.15 K, 100 kPa, x2 = 0.851",0.304 ± 0.00598 kcal/mol
same,excess molar enthalpy,"313.15 K, 100 kPa, x2 = 0.899",0.207 ± 0.0055 kcal/mol
same,excess molar enthalpy,"313.15 K, 100 kPa, x2 = 0.949",0.103 ± 0.00454 kcal/mol
same,excess molar enthalpy,"313.15 K, 1000 kPa, x2 = 0.05",0.134 ± 0.00526 kcal/mol
same,excess molar enthalpy,"313.15 K, 1000 kPa, x2 = 0.101",0.255 ± 0.00621 kcal/mol
same,excess molar enthalpy,"313.15 K, 1000 kPa, x2 = 0.151",0.352 ± 0.00669 kcal/mol
same,excess molar enthalpy,"313.15 K, 1000 kPa, x2 = 0.2",0.427 ± 0.00765 kcal/mol
same,excess molar enthalpy,"313.15 K, 1000 kPa, x2 = 0.25",0.49 ± 0.00837 kcal/mol
same,excess molar enthalpy,"313.15 K, 1000 kPa, x2 = 0.301",0.537 ± 0.00884 kcal/mol
same,excess molar enthalpy,"313.15 K, 1000 kPa, x2 = 0.351",0.569 ± 0.00932 kcal/mol
same,excess molar enthalpy,"313.15 K, 1000 kPa, x2 = 0.401",0.591 ± 0.00956 kcal/mol
same,excess molar enthalpy,"313.15 K, 1000 kPa, x2 = 0.45",0.601 ± 0.0098 kcal/mol
same,excess molar enthalpy,"313.15 K, 1000 kPa, x2 = 0.501",0.601 ± 0.0098 kcal/mol
same,excess molar enthalpy,"313.15 K, 1000 kPa, x2 = 0.549",0.59 ± 0.00956 kcal/mol
same,excess molar enthalpy,"313.15 K, 1000 kPa, x2 = 0.601",0.566 ± 0.00908 kcal/mol
same,excess molar enthalpy,"313.15 K, 1000 kPa, x2 = 0.652",0.536 ± 0.00884 kcal/mol
same,excess molar enthalpy,"313.15 K, 1000 kPa, x2 = 0.749",0.455 ± 0.00765 kcal/mol
same,excess molar enthalpy,"313.15 K, 1000 kPa, x2 = 0.799",0.387 ± 0.00693 kcal/mol
same,excess molar enthalpy,"313.15 K, 1000 kPa, x2 = 0.851",0.308 ± 0.00598 kcal/mol
same,excess molar enthalpy,"313.15 K, 1000 kPa, x2 = 0.899",0.225 ± 0.0055 kcal/mol
same,excess molar enthalpy,"313.15 K, 1000 kPa, x2 = 0.949",0.109 ± 0.00502 kcal/mol
same,excess molar enthalpy,"313.15 K, 10000 kPa, x2 = 0.05",0.136 ± 0.00526 kcal/mol
same,excess molar enthalpy,"313.15 K, 10000 kPa, x2 = 0.101",0.255 ± 0.00598 kcal/mol
same,excess molar enthalpy,"313.15 K, 10000 kPa, x2 = 0.151",0.352 ± 0.00669 kcal/mol
same,excess molar enthalpy,"313.15 K, 10000 kPa, x2 = 0.199",0.427 ± 0.00741 kcal/mol
same,excess molar enthalpy,"313.15 K, 10000 kPa, x2 = 0.249",0.488 ± 0.00813 kcal/mol
same,excess molar enthalpy,"313.15 K, 10000 kPa, x2 = 0.3",0.537 ± 0.00884 kcal/mol
same,excess molar enthalpy,"313.15 K, 10000 kPa, x2 = 0.349",0.569 ± 0.00932 kcal/mol
same,excess molar enthalpy,"313.15 K, 10000 kPa, x2 = 0.4",0.589 ± 0.00956 kcal/mol
same,excess molar enthalpy,"313.15 K, 10000 kPa, x2 = 0.449",0.599 ± 0.00956 kcal/mol
same,excess molar enthalpy,"313.15 K, 10000 kPa, x2 = 0.499",0.6 ± 0.0098 kcal/mol
same,excess molar enthalpy,"313.15 K, 10000 kPa, x2 = 0.551",0.588 ± 0.00956 kcal/mol
same,excess molar enthalpy,"313.15 K, 10000 kPa, x2 = 0.6",0.567 ± 0.00908 kcal/mol
same,excess molar enthalpy,"313.15 K, 10000 kPa, x2 = 0.65",0.535 ± 0.00884 kcal/mol
same,excess molar enthalpy,"313.15 K, 10000 kPa, x2 = 0.85",0.309 ± 0.00621 kcal/mol
same,excess molar enthalpy,"313.15 K, 10000 kPa, x2 = 0.899",0.222 ± 0.0055 kcal/mol
same,excess molar enthalpy,"313.15 K, 10000 kPa, x2 = 0.949",0.106 ± 0.00502 kcal/mol
same,excess molar enthalpy,"328.15 K, 1000 kPa, x2 = 0.05",0.137 ± 0.00526 kcal/mol
same,excess molar enthalpy,"328.15 K, 1000 kPa, x2 = 0.101",0.258 ± 0.00621 kcal/mol
same,excess molar enthalpy,"328.15 K, 1000 kPa, x2 = 0.151",0.356 ± 0.00693 kcal/mol
same,excess molar enthalpy,"328.15 K, 1000 kPa, x2 = 0.202",0.441 ± 0.00789 kcal/mol
same,excess molar enthalpy,"328.15 K, 1000 kPa, x2 = 0.252",0.506 ± 0.00884 kcal/mol
same,excess molar enthalpy,"328.15 K, 1000 kPa, x2 = 0.3",0.555 ± 0.00932 kcal/mol
same,excess molar enthalpy,"328.15 K, 1000 kPa, x2 = 0.35",0.592 ± 0.0098 kcal/mol
same,excess molar enthalpy,"328.15 K, 1000 kPa, x2 = 0.4",0.616 ± 0.0103 kcal/mol
same,excess molar enthalpy,"328.15 K, 1000 kPa, x2 = 0.45",0.629 ± 0.0103 kcal/mol
same,excess molar enthalpy,"328.15 K, 1000 kPa, x2 = 0.5",0.631 ± 0.0103 kcal/mol
same,excess molar enthalpy,"328.15 K, 1000 kPa, x2 = 0.55",0.622 ± 0.01 kcal/mol
same,excess molar enthalpy,"328.15 K, 1000 kPa, x2 = 0.601",0.6 ± 0.0098 kcal/mol
same,excess molar enthalpy,"328.15 K, 1000 kPa, x2 = 0.651",0.568 ± 0.00932 kcal/mol
same,excess molar enthalpy,"328.15 K, 1000 kPa, x2 = 0.701",0.525 ± 0.0086 kcal/mol
same,excess molar enthalpy,"328.15 K, 1000 kPa, x2 = 0.75",0.471 ± 0.00765 kcal/mol
same,excess molar enthalpy,"328.15 K, 1000 kPa, x2 = 0.851",0.327 ± 0.0055 kcal/mol
same,excess molar enthalpy,"328.15 K, 1000 kPa, x2 = 0.899",0.237 ± 0.00406 kcal/mol
same,excess molar enthalpy,"328.15 K, 1000 kPa, x2 = 0.949",0.122 ± 0.00227 kcal/mol
